Results as given in PMC8774682, “Inhibitory Mechanism of Baicalein on Acetylcholinesterase: Inhibitory Interaction, Conformational Change, and Computational Simulation” (Foods, 2022).
Where two headings read alike, the source gives them in different places.

Assays:
[1] = biological target: T1, AChE (Electrophorus electricus, UniProt O42275); test: Kinetic analysis of the inhibitory type (Lineweaver–Burk plots, v vs. AChE plots); assay type: biochemical
T1 construct: purchased Sigma-Aldrich Co. (St. Louis, MO, USA)
T1 sequence (O42275 24-633): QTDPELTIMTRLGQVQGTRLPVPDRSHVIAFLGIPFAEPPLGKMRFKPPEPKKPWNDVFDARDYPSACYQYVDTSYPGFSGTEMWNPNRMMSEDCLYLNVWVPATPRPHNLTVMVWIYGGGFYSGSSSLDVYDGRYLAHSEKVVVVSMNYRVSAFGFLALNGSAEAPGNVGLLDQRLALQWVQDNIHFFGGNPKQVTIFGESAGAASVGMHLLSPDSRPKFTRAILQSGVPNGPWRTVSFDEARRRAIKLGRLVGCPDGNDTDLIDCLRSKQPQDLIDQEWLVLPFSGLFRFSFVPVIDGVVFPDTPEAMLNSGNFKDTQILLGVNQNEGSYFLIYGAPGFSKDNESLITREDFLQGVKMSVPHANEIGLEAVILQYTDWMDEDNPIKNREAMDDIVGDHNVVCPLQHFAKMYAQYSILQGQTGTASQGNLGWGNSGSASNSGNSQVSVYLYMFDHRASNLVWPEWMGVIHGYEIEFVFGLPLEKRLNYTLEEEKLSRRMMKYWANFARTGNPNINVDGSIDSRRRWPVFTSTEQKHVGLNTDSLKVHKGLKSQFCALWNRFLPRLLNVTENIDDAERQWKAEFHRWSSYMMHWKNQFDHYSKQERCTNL
Excerpt: The Lineweaver–Burk plots and Michaelis–Menten enzyme kinetics were applied to analyse the inhibitory type. For competitive type inhibition, the dynamic double reciprocal equation was used as follows:(1) 1/v=Km/vmax(1+(I) /Ki)1/(S)+1/vmax (2) Kmapp=Km(I)/Ki+Km where (I) and (S) denote the inhibitor and substrate concentrations, respectively; ν represents the enzyme reaction rate irrespective of the presence of baicalein; νmax is the maximum catalytic reaction rate; Ki, Km, and Kmapp stand for the inhibition constant, Michaelis−Menten constant, and apparent Michaelis constant, respectively.

[2] = biological target: T1, AChE; test: Far-UV CD spectra, secondary structure of AChE; details: c(AChE) = 0.75 µM
Procedure: Far-UV CD spectra were measured using a spectrometer (MOS 450 CD; Bio-Logic, Claix, France) with a 1.0 mm path length quartz cuvette. All the spectra were measured in the 200–240 nm range at 25 °C, and the associated scan speed was 60 nm min^−1. The AChE in the PBS was completely blended with baicalein at varying concentrations and then equilibrated for three min before CD measurements. The spectra were amended by subtracting the spectrum of the buffer with that of baicalein at the same concentration as the sample solution. Three scans were conducted, and the ellipticity in millidegrees indicated the results. The contents of the discrepant secondary structures (α-helix, β-sheet, β-turn, and random coil) from AChE were measured based on CD spectroscopic data following the online SELCON3 program (http://dichroweb.cryst.bbk.ac.uk/html/home.shtml. Accessed on: 18 August 2021).

[3] = test system: PC12 cells; test: Cytotoxicity in PC12 cells (MTT assay); assay type: cell-based; details: 1–80 µM, 24 h
Procedure: PC12 cells were purchased from the NanJing KeyGen Biotech Co. Ltd. (Nanjing, China). These cells were cultivated in high-glucose DMEM supplemented with 10% FBS, 100 U/mL of penicillin and 100 µg/mL of streptomycin at 37 °C under a humidified 5% CO2 atmosphere. Baicalein was dissolved in DMSO to prepare a 5 mM stock solution and diluted with serum-free media before use. PC12 cells were seeded into a 96-well plate at the density of 2 × 10 ^4 cells/well (100 μL) and cultured for 24 h. Next, the medium was changed, and the cells were treated with baicalein at 0, 1, 10, 20, 40, and 80 µM. Each concentration had six replicate wells, and the culture was continued for 24 h. To determine the effect of baicalein on cell viability, 20 µL of MTT (5 mg/mL) was added to each well. After 4 h, the resulting formazan crystals were dissolved by adding 150 μL of DMSO for 10–15 min. The absorption (O.D.) of each hole at 570 nm wavelength was measured using an enzyme-labelled instrument (Varioskan LUX; Thermo Fisher Scientific, Waltham, MA, USA). Cell viability was expressed as the percentage of the control.

[4] = biological target: T1, AChE; test: Fluorescence quenching and synchronous fluorescence of AChE; assay type: binding
Procedure: A spectrofluorometer (model F-7000; Hitachi, Tokyo, Japan) containing a thermostat bath was used to measure the fluorescence spectra. The AChE solution (2.5 mL; 0.17 µM) was introduced into a 1.0 cm path length quartz cell, followed by titration through the successive addition of 2.0 mM of diluted baicalein solution (to obtain the concentration range of 0–16 µM). The well-mixed solutions were set aside for three min for equilibration purposes. The fluorescence spectra were measured in the 290–450 nm range, and the relevant excitation wavelength set was 280 nm at 25 °C, 31°C, and 37 °C. Excitation and emission bandwidths were 2.5 nm. In addition, synchronous fluorescence spectra for AChE with baicalein were conducted by fixing the interval of excitation and emission wavelength constants at 15 nm and 60 nm. Fluorescence data were amended according to our previous reports to erase the re-absorption possibility and the inner filter effects of UV absorption.
The binding constant (Ka) for the AChE–bacalein complex and the binding site number (n) were measured using Equation (3):(3) logF0−F/F=nlogKa−nlog1/(Qt)−(F0−F)(Pt)/F0
In general, four noncovalent interaction forces exist between small molecules and macromolecules, namely hydrogen bonds, van der Waals forces, electrostatic forces, and hydrophobic interactions. To identify the binding forces between bacalein and AChE, the thermodynamic parameters were measured following the Van’t Hoff equation:(4) logKa=−ΔH°/2.303RT+ΔS°/2.303R (5) ΔG°=ΔH°−TΔS° where Ka denotes the binding constant, and R represents the gas constant (8.314 J mol^−1 K^−1). The temperatures (T) used were 25 °C, 31 °C, and 37 °C.

[5] = biological target: T1, AChE; test: Time-course test of AChE inactivation kinetics; assay type: biochemical
Procedure: The kinetic process and rate constants for enzyme inactivation were determined through the time-course test. Baicalein with concentrations of 2, 4, 8, and 16 µM was used for analysing the time-course. Enzyme activity at each concentration was measured every 3 min for 0–30 min, every 6 min for 30–60 min, and then at 70 and 80 min.

[6] = biological target: T1, AChE; test: AChE activity assay (Ellman's method, modified); assay type: biochemical
Procedure: AChE (137 U/mg, Electrophorus electricus) was provided by Sigma-Aldrich Co. (St. Louis, MO, USA), and their stock solutions with 10 U/mL concentrations were prepared with 0.1 M phosphate-buffered saline (pH 7.6) and stored at −20 °C. Baicalein (purity ≥ 98%) was obtained from the National Institute for the Control of Pharmaceutical and Biological Products (Beijing, China) and dissolved in ethanol to prepare the stock solution (5 mM). 5,5-Dithiobis-(2-nitrobenzoic acid) (DTNB), acetylthiocholine iodide (ATCI), galathamine hydrobromide, and 3-(4, 5-dimethylthiazol-2-yl)-2,5-diphenyltetrazolium bromide (MTT) were provided by Aladdin Chemistry Co., Ltd. (Shanghai, China). Foetal bovine serum (FBS) was purchased from Gibco (Carlsbad, CA, USA). Dulbecco’s modified Eagle’s medium (DMEM), trypsin, and other cell culture reagents were purchased from Solarbio (Beijing, China). All remaining reagents were of analytical grade.
AChE activity was evaluated per Ellman’s method, albeit with a slight modification. Quartz cuvettes (3 mL) were utilised for measuring the assay mixture activity. Solutions containing varying amounts of baicalein, phosphate-buffered saline (0.1 M, pH 7.6), and 50 µL of AChE (2 U/mL, 3.4 × 10^−8 M) were cultivated in 30 min at 25 °C. After the pre-incubation period, 50 μL of 5, 5-dithiobis-(2-nitrobenzoic) acid (DNTB, 5 mM) was added. The reaction was then initiated with 50 μL of acetylthiocholine iodide (ATCI, 15 mM). The absorbance at 412 nm was monitored every 5 s with the TU−1901 dual-beam UV–Vis Spectrophotometer (Persee; Beijing, China). The samples were measured thrice, and the average value was considered. Enzyme activity without baicalein was identified to be 100%. […] Galantamine hydrobromide served as the positive control.

[7] = Van't Hoff equation, 25, 31, 37 °C

O=c1cc(-c2ccccc2)oc2cc(O)c(O)c(O)c12 [baicalein, 5,6,7-trihydroxyflavone]
Ki ([1]; Lineweaver–Burk, baicalein 0, 4, 8, 10 µM, c(AChE) = 0.57 nM, read-out: Ki (inhibition constant)): 4.32 ± 0.26 µM
inhibition type ([1]; double reciprocal plots intersect on the Y axis): competitive
inhibition reversibility ([1]; plots of v vs. AChE concentration, baicalein 0-16 µM): reversible
Random coil content of AChE ([2]; molar ratio baicalein:AChE 2:1): 25.36 ± 0.29%
α-Helix content of AChE ([2]; molar ratio baicalein:AChE 2:1): 38.82 ± 0.08%
β-Sheet content of AChE ([2]; molar ratio baicalein:AChE 2:1): 14.57 ± 0.13%
β-Turn content of AChE ([2]; molar ratio baicalein:AChE 2:1): 21.42 ± 0.57%
Random coil content of AChE ([2]; molar ratio baicalein:AChE 6:1): 21.71 ± 0.47%
α-Helix content of AChE ([2]; molar ratio baicalein:AChE 6:1): 42.53 ± 0.35%
β-Sheet content of AChE ([2]; molar ratio baicalein:AChE 6:1): 7.73 ± 0.03%
β-Turn content of AChE ([2]; molar ratio baicalein:AChE 6:1): 28.15 ± 0.89%
cytotoxicity (cell viability, MTT) [3]: nontoxic
bimolecular quenching constant Kq, magnitude order ([4]; 25-37 °C): ~10^13 L mol^−1 s^−1
Kd ([4]; 25-37 °C, read-out: binding constant, order of magnitude): ~100 µM
binding site number n ([4]; 25 °C): 0.88 ± 0.01
quenching constant KSV ([4]; 25 °C): 6.45 ± 0.02 ×10^4 L mol^−1
∆G° ([4]; 25 °C): -5.428 ± 0.014 kcal/mol
Kd ([4]; 25 °C, read-out: binding constant Ka (converted)): 15 µM
binding site number n ([4]; 31 °C): 0.93 ± 0.03
quenching constant KSV ([4]; 31 °C): 5.78± 0.03 ×10^4 L mol^−1
∆G° ([4]; 31 °C): -5.457 ± 0.0072 kcal/mol
Kd ([4]; 31 °C, read-out: binding constant Ka (converted)): 17.1 µM
binding site number n ([4]; 37 °C): 1.13 ± 0.02
quenching constant KSV ([4]; 37 °C): 5.22± 0.07 ×10^4 L mol^−1
∆G° ([4]; 37 °C): -5.483 ± 0.019 kcal/mol
Kd ([4]; 37 °C, read-out: binding constant Ka (converted)): 19.6 µM
∆H° [4, 7]: -4.065 ± 0.0048 kcal/mol
∆S° [4, 7]: 19.15 ± 0.09 J mol^−1 K^−1
synchronous fluorescence quenching ratio RSFQ, Tyr residues ([4]; Δλ = 15 nm, baicalein up to 16.0 μM, c(AChE) = 0.17 µM): 58.48%
synchronous fluorescence quenching ratio RSFQ, Trp residues ([4]; Δλ = 60 nm, baicalein up to 16.0 μM, c(AChE) = 0.17 µM): 63.83%
Inactivation rate constant k ([5]; baicalein 2 µM): 1.48 ± 0.03 ×10^−4 s^−1
Inactivation rate constant k ([5]; baicalein 4 µM): 2.42 ± 0.05 ×10^−4 s^−1
Inactivation rate constant k ([5]; baicalein 8 µM): 4.01 ± 0.02 ×10^−4 s^−1
Inactivation rate constant k ([5]; baicalein 16 µM): 5.18 ± 0.08 ×10^−4 s^−1
IC50 [6]: 6.42 ± 0.07 µM
inhibition at 26.7 µM ([6]; read-out: final inhibition rate of AChE activity): 90%

O=C(O)[C@H]1O[C@@H](Oc2cc3oc(-c4ccccc4)cc(=O)c3c(O)c2O)[C@H](O)[C@@H](O)[C@@H]1O [baicalin, reference compound]
IC50 [6]: 204 ± 16.5 µM
